This note sets out measurements from ChEMBL document CHEMBL1811849, “Development of a plate-based scintillation proximity assay for the mycobacterial AftB enzyme involved in cell wall arabinan biosynthesis” (Bioorg Med Chem, 2010).

The subject of assay [1] is Mycolicibacterium smegmatis. Put plainly: Activity of AftB in Mycobacterium smegmatis membrane/p60 fraction assessed as incorporation of DP[3H]A to compound to generate biotinylated trisaccharide with beta-(1 to 2) Araf residue by SPA assay.
Assay [2] has as its system Mycolicibacterium smegmatis. Put plainly: Activity of AftB in Mycobacterium smegmatis membrane assessed as formation of biosynthetic products by TLC based assay. The assay is classed as cell membranes.

The source made the active and inactive calls. No cut-off for these calls is given here.

As a reminder, the Km is the substrate concentration at which the rate is half of its maximum. With `O=C(CCCC[C@@H]1SC[C@@H]2NC(=O)N[C@@H]21)NCCSCCCCCO[C@H]1O[C@H](CO[C@H]2O[C@H](CO)[C@@H](O)[C@@H]2O)[C@@H](O)[C@@H]1O`, the Km in assay [1] came to 40.9 µM.
Regarding `C=CCCCO[C@H]1O[C@H](CO[C@H]2O[C@H](CO[C@H]3O[C@H](CO[C@H]4O[C@H](CO)[C@@H](O)[C@@H]4O)[C@@H](O)[C@@H]3O)[C@@H](O)[C@@H]2O)[C@@H](O)[C@@H]1O`, the outcome in assay [2] was Active.
On to `C=CCCCO[C@H]1O[C@H](CO[C@H]2O[C@H](CO)[C@@H](O)[C@@H]2O)[C@@H](O)[C@@H]1O`, for which the outcome in assay [2] was Active.
For the molecule `C=CCCCO[C@H]1O[C@H](CO[C@H]2O[C@H](CO[C@H]3O[C@H](CO)[C@@H](O)[C@@H]3O)[C@@H](O)[C@@H]2O)[C@@H](O)[C@@H]1O`, the outcome in assay [2] was Active.
